The subject of series [1] is TNFR-2-expressing wild-type (4E3) Jurkat cells.
Protocol: Cells were harvested and analyzed by PI exclusion on FACS 16 hours post-stimulation and cell loss was calculated as described in Example 1 (infra).
Series [2] concerns TNFR-2+ RIP -/- Jurkat cells (R1.1). Description: TNF cytotoxic assay (cell loss by PI exclusion on FACS), TNFR-2+ RIP -/- cells. The series is classed as cell-based. As to conditions: for TNF-induced death (cell loss): TNFR-2+ RIP -/- cells (R1.1), 10 ng/ml rhTNFα, 16 hours. The source says:
The results are representative of three experiments.

Series [3] relates to RIP. As to the kind of experiment: Western blot of RIP protein expression in cells treated with GA. The series is classed as cell-based. (In general: In western blotting, separated proteins are transferred to a membrane and probed.)
The test system of series [4] is RIP. Description: Western blot of RIP cleavage in TNF or anti-Fas stimulated wild-type 4E3 cells. The series is classed as cell-based. As to conditions: six hours, C-terminal specific RIP antibody. The procedure:
FIG. 4A is a Western blot showing the results of experiments in which wild-type 4E3 cells (WT) and J3.2 cells (Casp-8 -/-) cells Were treated with various combinations of rhTNFα, Apo-1 (anti-Fas), and zVAD-fmk for six hours before whole cell lysates were harvested.

For a further series, the system named is caspase-8 -/- J3.2 cells. As to the kind of experiment: TNF cytotoxic assay (cell loss by PI exclusion on FACS), caspase-8 -/- J3.2 cells. As to conditions: caspase-8 -/- J3.2 cells; rhTNF 15-16 hours; zVAD-fmk or 0.5 mM GA pretreatment.
The subject of the next series is FADD -/- I42 cells. Description: TNF cytotoxic assay (cell loss by PI exclusion on FACS), FADD -/- I42 cells. The series is classed as cell-based. The note with it: FADD -/- I42 cells; TNF 16 hours; zVAD-fmk or GA. The procedure:
Cells were stimulated with, TNF or anti-Fas antibody (CH11) for 12 hours and cell loss was analyzed on the GFP+ cells by PI exclusion on FACS.
FIG. 8F is a bar graph depicting the results of experiments in which FADD -/- I42 cells and caspase-8 -/- J3.2 cells (both are TNFR-2+) were stimulated with TNF in the presence or absence of zVAD-fmk for 16 hours.

“Also recorded” adds a separate entry of the source.

For `COC1=C2C[C@@H](C)C[C@H](OC)[C@H](O)[C@@H](C)/C=C(\C)[C@H](OC(N)=O)[C@@H](OC)/C=C\C=C(/C)C(=O)NC(=CC1=O)C2=O` [geldanamycin], in series [1], the “cell viability, compound alone” value is recorded as “no effect”. Also, in series [2] (or 0.5 mM GA), the “TNF-induced death (cell loss)” value is recorded as “no effect”. The “reduction in RIP protein level” value with RIP [3] is on record as > 90%.
Regarding “z-Val-Ala-Asp-fluoromethyl ketone [zVAD-fmk]”, the “cell viability, compound alone” value in series [1] was “no effect”. For the same molecule, the “TNF-induced death (cell loss), zVAD-fmk plus GA together” value in series [1] (wild-type 4E3 cells, 10 ng/ml rhTNFα with zVAD-fmk plus GA, 16 hours) is on record as “synergized to completely suppress”. In series [1] (wild-type 4E3 cells, 10 ng/ml rhTNFα, 16 hours, or 0.5 mM GA), the “TNF-induced death (cell loss), single agent” value is reported as “partial protective effect”. Moreover, the “TNF-induced death (cell loss)” value in series [2] (50 mM zVAD-fmk or 0.5 mM GA) was “completely inhibited”. The “TNF killing restored by K45A or RIPc, in the presence of zVAD-fmk” value in series [2] (TNFR-2+ RIP -/- cells reconstituted with kinase inactive (K45A) RIP or RIPc) is reported as “potently inhibited”. The RIP cleavage result in the series with RIP [4] is recorded as “potently inhibited”. Moreover, the “TNF-induced programmed necrosis (cell loss)” value with caspase-8 -/- J3.2 cells and with FADD -/- I42 cells was “failed to provide any protection; also recorded: not blocked” throughout.
